Measurements taken from patent US20040214796A1, “Novel therapeutic application of enoxaparin” (AVENTIS PHARMA S.A., priority 2000, published 2004).
Marks after values point to notes of the source that are not given here.

Key:
[1] = system: cerebral ischemia; experiment: Permanent focal cerebral ischemia in rats (left middle cerebral artery permanently cauterized, no carotid occlusion), Study 4; format: in vivo, rat (male Sprague Dawley); details: Study 4 (permanent occlusion), 2 × 1.5 mg/kg iv
[2] = system: cerebral ischemia; experiment: Transient focal cerebral ischemia in rats (2 h clamp of left middle cerebral artery plus carotid ligation, then reperfusion), Studies 1-3; format: in vivo, rat (male Sprague Dawley); details: for reduction of the cortical lesion: vs control group; for CORTICAL LESION: mean ± S.E.M.
Experimental: Male Sprague Dawley rats (230-250 g Iffa Credo) are fed and watered ad libitum and kept in a light-dark cycle of 12 hours. Surgery was carried out under halothane (1.4% in a mixture of 70% N2O/30% O2). During anesthesia, normothermia is maintained by placing the rat under a thermostated cover. The left common carotid artery is isolated and a loose ligature is put in place. The left middle cerebral artery is exposed via a subtemporal craniotomy and a microclamp is placed in the proximal region of the artery, immediately followed by the ligation of the carotid artery. Two hours later, the animals are reanesthetized and the cerebral circulation is reestablished by removing the clamp from the middle cerebral artery and the ligature from the carotid artery. The rats are then placed in their cage in a thermostated room at 26-28° C. 48 hours after the surgery, a neurological examination is carried out for each rat by an examiner unaware of the treatment. The neurological scale used is described in Table 1. [table] After the neurological examination, the rats are humanely killed and their brains removed. 1.5 mm thick serial sections are prepared and stained with 2,3,5-triphenyltetrazolium chloride (TTC) at 2%. After 24 hours of post-fixing in a 10% formaldehyde solution, the lesion areas (cerebral infarct) are measured at the cortical and striatal levels; the volumes are calculated by integrating the lesioned surface areas. The values are expressed in mm^3 (mean ±S.E.M). Statistical analysis was carried out by a Mann-Whitney test or by a Kruskal-Wallis test for non-parametric variance analysis followed by a Dunn test for comparison between groups (*:p<0.05, **:p<0.01, ***:p<0.001 vs control group). In Study 1, enoxaparin is administered to 12 rats at 1.5 mg/kg iv, 2 hours and 24 hours after the onset of the ischemia. A control group of 10 rats receives only the vehicle (physiological solution of sodium chloride at 0.9%) following the same protocol. In Study 2, the therapeutic window of opportunity for enoxaparin is explored. The treatment starts 5 hours after the ischemia followed by a second administration at 24 hours. This study consists in an enoxaparin dose-effect on the cerebral lesions. The doses studied are 0.5:1 and 1.5 mg/kg iv (9-10 rats per group). A control group of 11 rats receives only the vehicle (physiological solution of sodium chloride at 0.9%). In Study 3, enoxaparin is administered to 10 rats at 1.5 mg/kg iv, 5 and 24 hours after the onset of the ischemia. The control group of 13 rats receives only the vehicle (physiological solution of sodium chloride at 0.9%).

For Enoxaparin, the “reduction of the cortical lesion” value ([1]; 5 h and 24 h, vs control group) was 49%, the “CORTICAL LESION” value ([1]; 5 h and 24 h after onset of ischemia, mean ± S.E.M.) was 71 ± 13* mm^3 and the “reduction of the cortical lesion” value ([2]; Study 1, 2 × 1.5 mg/kg iv, 2 h and 24 h) was 30%. The “CORTICAL LESION” value ([2]; Study 1, 2 × 1.5 mg/kg iv, 2 h and 24 h after onset of ischemia, measured 48 h after surgery) was 131 ± 13* mm^3, the “CORTICAL LESION” value ([2]; Study 2, 2 × 0.5 mg/kg iv, 5 h and 24 h after ischemia) was 164 ± 15 mm^3 and the “reduction of the cortical lesion” value ([2]; Study 2, 2×1 mg/kg iv, 5 h and 24 h) was 30%. The “CORTICAL LESION” value ([2]; Study 2, 2 × 1 mg/kg iv, 5 h and 24 h after ischemia) was 142 ± 24* mm^3, the “reduction of the cortical lesion” value ([2]; Study 2, 2×1.5 mg/kg iv, 5 h and 24 h) was 36% and the “CORTICAL LESION” value ([2]; Study 2, 2 × 1.5 mg/kg iv, 5 h and 24 h after ischemia) was 129 ± 17* mm^3. The “reduction of the cortical lesion” value ([2]; Study 3, 2 × 1.5 mg/kg iv, 5 h and 24 h) was 34%, the “CORTICAL LESION” value ([2]; Study 3, 2 × 1.5 mg/kg iv, 5 h and 24 h after onset of ischemia) was 129 ± 16** mm^3 and the bleeding ([2]; during Studies 1-4, 0.5-1.5 mg/kg iv, two administrations) was “No problem of bleeding was encountered”.
